In ChEMBL document CHEMBL3885861, “Open TG-GATES”:

Species on record: Rattus norvegicus
Test: Open TG-GATES - Regimen: Single
Assay type: toxicity, organism-based, Sprague-Dawley
Parameters: regimen Single, gender Male, age 6 weeks
Settings: in vivo, po, route gavage; for APTT / Bas / Eos / Fbg / Hb / Ht / Lym / MCH / MCHC / MCV / Mono / Neu / PT / Plat / RBC / Ret / WBC: tissue Blood; for KIDNEY_L / KIDNEY_R / KIDNEY_TOTAL: tissue Kidney; for LIVER: tissue Liver; for A/G / ALP / ALT / AST / BUN / CRE / Ca / Cl / DBIL / GLC / IP / K / LDH / Na / PL / RALB / TBIL / TC / TG / TP / gamma-GTP: tissue Plasma
[1] = 300 mg/kg, 3 h, dose level Middle
[2] = 300 mg/kg, 6 h, dose level Middle
[3] = 300 mg/kg, 9 h, dose level Middle
[4] = 300 mg/kg, 24 h, dose level Middle
[5] = 1000 mg/kg, 3 h, dose level High
[6] = 1000 mg/kg, 6 h, dose level High
[7] = 1000 mg/kg, 9 h, dose level High
[8] = 1000 mg/kg, 24 h, dose level High

O=C(O)COc1nn(Cc2ccccc2)c2ccccc12 [BENDAZAC]
TERMINAL_BW [1]: 210.1 g
APTT [1]: 17.4 s
Bas [1]: 0%
Eos [1]: 1%
Fbg [1]: 206.8 mg/dL
Hb [1]: 13.9 g/dL
Ht [1]: 41.6%
Lym [1]: 80.4%
MCH [1]: 21.7 pg
MCHC [1]: 33.5%
MCV [1]: 64.7 fL
Mono [1]: 5.2%
Neu [1]: 13.4%
PT [1]: 11.7 s
Plat [1]: 116.9 x10_4/uL
RBC [1]: 643.4 x10_4/ul
Ret [1]: 9.9%
WBC [1]: 91 x10_2/uL
KIDNEY_L [1]: 1 g
KIDNEY_R [1]: 1 g
KIDNEY_TOTAL [1]: 2 g
LIVER [1]: 9.4 g
A/G [1]: 2.1
ALP [1]: 1450 IU/L
ALT [1]: 35.6 IU/L
AST [1]: 69.2 IU/L
BUN [1]: 11.8 mg/dL
CRE [1]: 0.5 mg/dL
Ca [1]: 10.6 mg/dL
Cl [1]: 101 meq/L
DBIL [1]: 0.014 mg/dL
GLC [1]: 189.2 mg/dL
IP [1]: 10.5 mg/dL
K [1]: 4.9 meq/L
LDH [1]: 105 IU/L
Na [1]: 139.4 meq/L
PL [1]: 124.4 mg/dL
RALB [1]: 3.6 g/dL
TBIL [1]: 1.3 mg/dL
TC [1]: 71.6 mg/dL
TG [1]: 46 mg/dL
TP [1]: 5.4 g/dL
gamma-GTP [1]: 1 IU/L
TERMINAL_BW [2]: 207.7 g
APTT [2]: 17.2 s
Bas [2]: 0%
Eos [2]: 1.4%
Fbg [2]: 214.8 mg/dL
Hb [2]: 13.9 g/dL
Ht [2]: 41.7%
Lym [2]: 78.2%
MCH [2]: 21.7 pg
MCHC [2]: 33.3%
MCV [2]: 65.1 fL
Mono [2]: 7.8%
Neu [2]: 13%
PT [2]: 11.9 s
Plat [2]: 119.6 x10_4/uL
RBC [2]: 641.8 x10_4/ul
Ret [2]: 11.7%
WBC [2]: 98.8 x10_2/uL
KIDNEY_L [2]: 1 g
KIDNEY_R [2]: 1 g
KIDNEY_TOTAL [2]: 2 g
LIVER [2]: 8.9 g
A/G [2]: 2.3
ALP [2]: 3422.2 IU/L
ALT [2]: 30.2 IU/L
AST [2]: 60.8 IU/L
BUN [2]: 8.8 mg/dL
CRE [2]: 0.6 mg/dL
Ca [2]: 10.9 mg/dL
Cl [2]: 101.8 meq/L
DBIL [2]: 0.066 mg/dL
GLC [2]: 189.6 mg/dL
IP [2]: 10.7 mg/dL
K [2]: 4.9 meq/L
LDH [2]: 97 IU/L
Na [2]: 141.2 meq/L
PL [2]: 135.4 mg/dL
RALB [2]: 3.8 g/dL
TBIL [2]: 1.5 mg/dL
TC [2]: 78.2 mg/dL
TG [2]: 27 mg/dL
TP [2]: 5.4 g/dL
gamma-GTP [2]: 1 IU/L
TERMINAL_BW [3]: 200.4 g
APTT [3]: 17.2 s
Bas [3]: 0%
Eos [3]: 1%
Fbg [3]: 205 mg/dL
Hb [3]: 14 g/dL
Ht [3]: 41.8%
Lym [3]: 81.8%
MCH [3]: 22.3 pg
MCHC [3]: 33.4%
MCV [3]: 66.8 fL
Mono [3]: 5.2%
Neu [3]: 12%
PT [3]: 11.8 s
Plat [3]: 121.4 x10_4/uL
RBC [3]: 626.2 x10_4/ul
Ret [3]: 8.8%
WBC [3]: 86.7 x10_2/uL
KIDNEY_L [3]: 0.9 g
KIDNEY_R [3]: 1 g
KIDNEY_TOTAL [3]: 1.9 g
LIVER [3]: 7.8 g
A/G [3]: 2.1
ALP [3]: 2047.2 IU/L
ALT [3]: 29 IU/L
AST [3]: 60.2 IU/L
BUN [3]: 9.6 mg/dL
CRE [3]: 0.6 mg/dL
Ca [3]: 10.3 mg/dL
Cl [3]: 103.6 meq/L
DBIL [3]: 0.028 mg/dL
GLC [3]: 183.8 mg/dL
IP [3]: 10 mg/dL
K [3]: 4.7 meq/L
LDH [3]: 94.4 IU/L
Na [3]: 143 meq/L
PL [3]: 126 mg/dL
RALB [3]: 3.7 g/dL
TBIL [3]: 1.2 mg/dL
TC [3]: 72.4 mg/dL
TG [3]: 39.4 mg/dL
TP [3]: 5.5 g/dL
gamma-GTP [3]: 1.2 IU/L
TERMINAL_BW [4]: 220.3 g
APTT [4]: 16.8 s
Bas [4]: 0%
Eos [4]: 1%
Fbg [4]: 208.6 mg/dL
Hb [4]: 13.6 g/dL
Ht [4]: 40.7%
Lym [4]: 78.6%
MCH [4]: 21.3 pg
MCHC [4]: 33.3%
MCV [4]: 63.9 fL
Mono [4]: 9.6%
Neu [4]: 11%
PT [4]: 12.2 s
Plat [4]: 120.5 x10_4/uL
RBC [4]: 637.8 x10_4/ul
Ret [4]: 8%
WBC [4]: 98.3 x10_2/uL
KIDNEY_L [4]: 1 g
KIDNEY_R [4]: 1 g
KIDNEY_TOTAL [4]: 2 g
LIVER [4]: 11.3 g
A/G [4]: 2.2
ALP [4]: 1529.6 IU/L
ALT [4]: 39 IU/L
AST [4]: 71.2 IU/L
BUN [4]: 19.8 mg/dL
CRE [4]: 0.6 mg/dL
Ca [4]: 11 mg/dL
Cl [4]: 104 meq/L
DBIL [4]: 0.006 mg/dL
GLC [4]: 187.2 mg/dL
IP [4]: 6.3 mg/dL
K [4]: 4.5 meq/L
LDH [4]: 123.4 IU/L
Na [4]: 140 meq/L
PL [4]: 132 mg/dL
RALB [4]: 3.8 g/dL
TBIL [4]: 1 mg/dL
TC [4]: 66.8 mg/dL
TG [4]: 111 mg/dL
TP [4]: 5.5 g/dL
gamma-GTP [4]: 1 IU/L
TERMINAL_BW [5]: 213.4 g
APTT [5]: 16.9 s
Bas [5]: 0%
Eos [5]: 1.2%
Fbg [5]: 207.6 mg/dL
Hb [5]: 13.6 g/dL
Ht [5]: 40.3%
Lym [5]: 74%
MCH [5]: 21.9 pg
MCHC [5]: 33.7%
MCV [5]: 65.1 fL
Mono [5]: 7.8%
Neu [5]: 16.8%
PT [5]: 11.3 s
Plat [5]: 130.3 x10_4/uL
RBC [5]: 620.2 x10_4/ul
Ret [5]: 12%
WBC [5]: 92.8 x10_2/uL
KIDNEY_L [5]: 1 g
KIDNEY_R [5]: 1 g
KIDNEY_TOTAL [5]: 2 g
LIVER [5]: 9.7 g
A/G [5]: 2.2
ALP [5]: 1482.6 IU/L
ALT [5]: 35.2 IU/L
AST [5]: 67.8 IU/L
BUN [5]: 12.2 mg/dL
CRE [5]: 0.5 mg/dL
Ca [5]: 10.6 mg/dL
Cl [5]: 100.2 meq/L
DBIL [5]: 0.04 mg/dL
GLC [5]: 195.2 mg/dL
IP [5]: 10.1 mg/dL
K [5]: 4.8 meq/L
LDH [5]: 99.8 IU/L
Na [5]: 140 meq/L
PL [5]: 133.6 mg/dL
RALB [5]: 3.7 g/dL
TBIL [5]: 1.4 mg/dL
TC [5]: 73.2 mg/dL
TG [5]: 42.2 mg/dL
TP [5]: 5.4 g/dL
gamma-GTP [5]: 1.2 IU/L
TERMINAL_BW [6]: 205.5 g
APTT [6]: 17.1 s
Bas [6]: 0%
Eos [6]: 1.2%
Fbg [6]: 215.4 mg/dL
Hb [6]: 14 g/dL
Ht [6]: 41.8%
Lym [6]: 68.2%
MCH [6]: 22.1 pg
MCHC [6]: 33.5%
MCV [6]: 66 fL
Mono [6]: 8%
Neu [6]: 23.4%
PT [6]: 11.8 s
Plat [6]: 126.4 x10_4/uL
RBC [6]: 633.4 x10_4/ul
Ret [6]: 14.3%
WBC [6]: 86.8 x10_2/uL
KIDNEY_L [6]: 0.9 g
KIDNEY_R [6]: 0.9 g
KIDNEY_TOTAL [6]: 1.9 g
LIVER [6]: 8.6 g
A/G [6]: 2.1
ALP [6]: 2888.2 IU/L
ALT [6]: 33.8 IU/L
AST [6]: 67.4 IU/L
BUN [6]: 10.6 mg/dL
CRE [6]: 0.6 mg/dL
Ca [6]: 10.5 mg/dL
Cl [6]: 100 meq/L
DBIL [6]: 0.046 mg/dL
GLC [6]: 189.8 mg/dL
IP [6]: 10.8 mg/dL
K [6]: 4.5 meq/L
LDH [6]: 114.6 IU/L
Na [6]: 141 meq/L
PL [6]: 138 mg/dL
RALB [6]: 3.7 g/dL
TBIL [6]: 1.5 mg/dL
TC [6]: 83 mg/dL
TG [6]: 21.2 mg/dL
TP [6]: 5.4 g/dL
gamma-GTP [6]: 0.8 IU/L
TERMINAL_BW [7]: 202.5 g
APTT [7]: 17.9 s
Bas [7]: 0%
Eos [7]: 1%
Fbg [7]: 213.4 mg/dL
Hb [7]: 13.6 g/dL
Ht [7]: 40.7%
Lym [7]: 79.6%
MCH [7]: 21.7 pg
MCHC [7]: 33.5%
MCV [7]: 64.9 fL
Mono [7]: 7.4%
Neu [7]: 12.2%
PT [7]: 11.8 s
Plat [7]: 120.8 x10_4/uL
RBC [7]: 627.8 x10_4/ul
Ret [7]: 8%
WBC [7]: 71.1 x10_2/uL
KIDNEY_L [7]: 0.9 g
KIDNEY_R [7]: 1 g
KIDNEY_TOTAL [7]: 1.9 g
LIVER [7]: 7.9 g
A/G [7]: 2.1
ALP [7]: 5387.2 IU/L
ALT [7]: 28 IU/L
AST [7]: 63.6 IU/L
BUN [7]: 11.2 mg/dL
CRE [7]: 0.6 mg/dL
Ca [7]: 10.3 mg/dL
Cl [7]: 100.8 meq/L
DBIL [7]: 0.032 mg/dL
GLC [7]: 177.6 mg/dL
IP [7]: 10 mg/dL
K [7]: 4.6 meq/L
LDH [7]: 92.8 IU/L
Na [7]: 141.6 meq/L
PL [7]: 129.8 mg/dL
RALB [7]: 3.7 g/dL
TBIL [7]: 1.5 mg/dL
TC [7]: 75.8 mg/dL
TG [7]: 30.2 mg/dL
TP [7]: 5.5 g/dL
gamma-GTP [7]: 1 IU/L
TERMINAL_BW [8]: 203.6 g
APTT [8]: 16.8 s
Bas [8]: 0%
Eos [8]: 1.6%
Fbg [8]: 193 mg/dL
Hb [8]: 14 g/dL
Ht [8]: 41.8%
Lym [8]: 77%
MCH [8]: 21.6 pg
MCHC [8]: 33.4%
MCV [8]: 64.6 fL
Mono [8]: 6.6%
Neu [8]: 15.2%
PT [8]: 13.1 s
Plat [8]: 133.3 x10_4/uL
RBC [8]: 647.6 x10_4/ul
Ret [8]: 10.7%
WBC [8]: 92.1 x10_2/uL
KIDNEY_L [8]: 1 g
KIDNEY_R [8]: 1 g
KIDNEY_TOTAL [8]: 1.9 g
LIVER [8]: 9 g
A/G [8]: 2.4
ALP [8]: 6419.2 IU/L
ALT [8]: 31.2 IU/L
AST [8]: 58 IU/L
BUN [8]: 12.6 mg/dL
CRE [8]: 0.7 mg/dL
Ca [8]: 10.7 mg/dL
Cl [8]: 99 meq/L
DBIL [8]: 0.056 mg/dL
GLC [8]: 180.6 mg/dL
IP [8]: 8.6 mg/dL
K [8]: 4.3 meq/L
LDH [8]: 104.4 IU/L
Na [8]: 140.2 meq/L
PL [8]: 110.8 mg/dL
RALB [8]: 3.9 g/dL
TBIL [8]: 1.9 mg/dL
TC [8]: 63.8 mg/dL
TG [8]: 31.6 mg/dL
TP [8]: 5.5 g/dL
gamma-GTP [8]: 0.8 IU/L
